Laboratory results published in patent publication US8022178B2, “Modified self-assembling peptides” (Massachusetts Institute of Technology, priority 2006, dated 2011).
“Also recorded” adds a separate entry of the source.

Key:
[1] = neutral pH range (Caplan 2002a); cited from earlier work
[2] = neutral pH range (Caplan 2002a); cited from earlier work; remark: listed apart in the source
[3] = test system: Mouse preosteoblast cell line (MC3T3-E1); assay: MC3T3-E1 cell proliferation on hydrogels (DNA content, PicoGreen); format: cell-based; settings: pre-osteoblast; when it becomes hydrogel; no data shown
Procedure: Mouse preosteoblast cell line (MC3T3-E1) was used to compare the proliferation and differentiation effects of the motifs with RAD16-1 and Collagen-I hydrogels as controls. The proliferation was measured by DNA contents and the differentiation effects were evaluated using Alkaline phosphatase (ALP) activity and secreted Osteocalcin. Alkaline phosphatase is known to be differentiation marker of osteoblast in earlier stage. Secreted Osteocalcin is known to be differentiation marker of osteoblast in later stage and its activity is correlated with the bone mineralization.
1% RAD16-I solution [self-assembling peptide solution] was obtained as RAD16-I (Puramatrix™, 3DM Inc./BD Bioscience). The functionalized peptides of Table 2 were dissolved in water at final concentration of 1% (v/w). The functionalized peptide solutions were then mixed with 1% RAD16-I solution at a ratio of 1:1 (Table 4). Each peptide solution was loaded in the Culture plate inserts (10 mm diameter, Millicell-CM, Millipore). […]
Cell proliferation was evaluated using DNA contents in the hydrogel using PicoGreen dsDNA Kits (Molecular Probes). ALP activity was quantitatively measured from cell lysis using Alkaline Phosphatase Fluorescence Assay Kit (Sigma). Osteocalcin was measured from cell culture medium using Mouse Osteocalcin EIA Kit (Biomedical Technologies Inc.).

[4] = pI and charge of the self-assembling peptide; format: physicochemical
Procedure: (§1) A comparison of the pH dependent property of 1% Ac(RADA)4GGFHRRIKA CONH2 (SEQ ID NO. 6) solution (Code: FHR), self assembling peptide sequence was compared with the heparin-binding motif. FIG. 12 depicts the isoelectric plot and corresponding rheological data when 0.1 N NaOH solution is added to FHR solution to adjust pH. The net charge of the peptide molecule is kept ≧2 when pH<10. Until at point of pH 5.7, the solution keeps viscous state. This movement of pH point where the peptide solution become gel is controlled by the charge induced by the additional motif to the self-assembling peptide. The induced charge prevents the peptide to aggregate to form the gel. Thus, the cell and the peptide solution can be mixed near neutral pH. After complete mixing, the gel formation can be made by adding salt containing solution (e.g., a solution containing a gellation agent or an iso-osmotic solute).
FIG. 18 depicts the isoelectric plot and Rheological data of PFS 1% solution when 0.1 N NaOH solution is added. 1% Ac(RADA)4GGSKPPGTSS-CONH2 solution (Code: SKP, peptide sequence: SEQ ID NO. 7) is a hydrogel composed of peptides with a self-assembling sequence and positively-charged functional motif. Although the pI value of the peptide is 9.74 and it keeps positive charge at near pH 7 range, the gel is formed at the point of pH 4.5. This is because the charge of the molecule around pH 7 range is +1 and smaller than the charge of Ac(RADA)4GGFHRRIKA CONH2 (FHR) (bigger than 3). The charge of the whole peptide should be larger than 2 when the cell is mixed. This pH should be somewhere in 6-8 in order to minimize the damage to the cells. As this sequence is heparin-binding motif, the fiber can attach to the heparin molecule which is abundant at cell surface. This heparin-binding motif provides a specific anchor to the cell. As described in Example 1, this binding synergistically works with the other binding motif (e.g., RGD) to induce biological stimuli for cell proliferation and differentiation. This effect is not limited to the sequences previously describe, but the other motifs, including -XBBXBX- and -XBBBXXBX- sequences. […]

[5] = test system: HUVEC (human umbilical vein endothelial cells); assay: HUVEC cell attachment on hydrogels based on various self-assembling sequence; settings: HUVEC cultured for three days
Procedure: Cell attachment and viability of the hydrogels were evaluated using HUVEC (human umbilical vein endothelial cells). The peptide solutions shown in Table 22 were loaded in the culture inserts (10 mm diameter, Millicell-CM, Millipore) and gels were formed using cell culture medium (EGM-2-MV, Camblex). HUVEC were plated at 8×10^4 cells on the inserts and cultured for three days.
This implies that functionalization of the self-assembling peptide is useful regardless of the basic repetitive sequence, while the properties of hydrogel can be controlled by altering basic repetitive sequence in amino acid and length.

[6] = molecular target: bFGF (Homo sapiens, UniProt P09038); assay: bFGF retention in peptide matrix (ELISA); settings: bFGF 175 ng/insert loaded after gelation; during PBS washing and culturing; FIG. 19
Chain of bFGF (P09038 143-288, species assumed): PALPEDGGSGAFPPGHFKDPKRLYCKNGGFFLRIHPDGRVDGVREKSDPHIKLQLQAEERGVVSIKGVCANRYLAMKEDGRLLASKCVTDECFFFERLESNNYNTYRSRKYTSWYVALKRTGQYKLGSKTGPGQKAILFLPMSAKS
Procedure: (§2) The effect of protein retention and delivery using the self-assembling peptide were studied (Table 11). bFGF was used as a model protein. The retention of bFGF in different peptide matrix in different charge condition was measured by ELISA after washing by PBS. After washing out unbound bFGF, the effect of protein retention to self-assembling peptide matrix were evaluated the using cell culturing of HUVEC (human umbilical vein endothelial cells).
The peptide solutions provided in Table 12 were loaded in the culture inserts (10 mm diameter, Millicell-CM, Millipore) and gels were formed using PBS. After gelation, bFGF solution in PBS was added inside and outside and plated for overnight. bFGF was loaded at 175 ng/insert. After loading bFGF, the PBS inside and outside the inserts were exchanged three times (2 hours, 9 hours and 12 hours) to remove unbound bFGF (Washing). After the washing, the PBS was exchanged to the cell culture medium (EGM-2-MV, Camblex) without attached growth factor (bFGF, VEGF and EGF) and placed more than a day (such that the fluid contained in the gel is exchanged from PBS to cell culture medium), then HUVEC (human umbilical vein endothelial cells) were plated at 7.5×10^4 cells on the inserts and cultured for three days.
Cell culturing using cell culture medium (EGM-2-MV) was used without attached growth factor on peptide matrix as negative control. Cell culturing using cell culture medium (EGM-2-MV) was used with attached growth factor on peptide matrix without loading growth factor as positive control. The bFGF concentration in washing buffer (PBS) and cell culture medium (EGM-2-MV) was measured using ELISA. The washing buffer and cell culture medium were exchanged at each measurement period (2 hours, 9 hours and 12 hours for washing, and at the cell seeding (D0), Day 1 (D 1), Day 2 (D2) and Day 3 (D3)). Growth factor retention rate was calculated by accumulating the amount of measured bFGF.

[7] = test system: HUVEC (human umbilical vein endothelial cells); assay: HUVEC culture on bFGF loaded peptide matrix; format: cell-based; settings: Day 3; bFGF loaded matrix compared to negative and positive control; FIG. 21
Procedure: as §2
The peptide solutions provided in Table 12 were loaded in the culture inserts (10 mm diameter, Millicell-CM, Millipore) and gels were formed using PBS. After gelation, bFGF solution in PBS was added inside and outside and plated for overnight. bFGF was loaded at 175 ng/insert. After loading bFGF, the PBS inside and outside the inserts were exchanged three times (2 hours, 9 hours and 12 hours) to remove unbound bFGF (Washing). […]
Cell culturing using cell culture medium (EGM-2-MV) was used without attached growth factor on peptide matrix as negative control. […] The bFGF concentration in washing buffer (PBS) and cell culture medium (EGM-2-MV) was measured using ELISA. […] Growth factor retention rate was calculated by accumulating the amount of measured bFGF. […]

[8] = test system: HUVEC (human umbilical vein endothelial cells); assay: HUVEC cultured 2-dimensionally on hydrogels: cell attachment and morphology; format: cell-based; parameters: key to Capillary like morphology: weak: +; medium: ++; strong: +++; very strong: ++++; settings: HUVEC cultured on hydrogels
Procedure: The effect of functional modified peptide matrix to HUVEC (human umbilical vein endothelial cells) was evaluated by culturing cells 2-dimensionally on the gel.
The peptide solutions shown in Table 19 were loaded in the culture inserts (10 mm diameter, Millicell-CM, Millipore) and gels were formed using cell culture medium (EGM-2-MV, Camblex). Collagen-1 and Matrigel were used as control matrices. HUVEC (human umbilical vein endothelial cells) were plated at 8×10^4 cells on the inserts and cultured up to 7 Days.

[9] = Isoelectric plot and rheological data when 0.1 N NaOH is added (pH of gel formation); format: physicochemical; settings: 1% solution, 0.1 N NaOH solution added
From the text: At the point of pH 3.6, the viscous solution become gel and has a higher G′ (stiffness), G″ (viscosity) value. When the pH is increased, the gel breaks into small pieces and it becomes a solution with precipitated peptides. At lower pH, the peptide forms fibers and the fibers make the solution viscous. When the pH becomes higher, and approaches the pI value, the peptide fibers lose their charge and aggregate to form gel. The same gel formation happens when the peptide charge is screened by salts in a salt-containing solution (e.g., a solution containing a gellation agent or an iso-osmotic solute). Once the gel is formed, the fiber structure is broken into pieces to form a precipitate particle.
as §1
FIG. 18 depicts the isoelectric plot and Rheological data of PFS 1% solution when 0.1 N NaOH solution is added. 1% Ac(RADA)4GGSKPPGTSS-CONH2 solution (Code: SKP, peptide sequence: SEQ ID NO. 7) is a hydrogel composed of peptides with a self-assembling sequence and positively-charged functional motif. Although the pI value of the peptide is 9.74 and it keeps positive charge at near pH 7 range, the gel is formed at the point of pH 4.5. […]

[10] = test system: MC3T3-E1 cells; assay: Confocal microscopy of cells cultured on different functional peptide (DSG) concentration; format: cell-based, mouse
[11] = test system: MC3T3-E1 cells; assay: Effect of RAD:DSG mixture ratio on cell proliferation (DNA contents, 7 days); format: cell-based, mouse; settings: RAD:DSG mixture ratio varied from 100:0 to 0:100, FIG. 8
Procedure: Effect of a mixture of self-assembling sequence peptide (e.g., 1% RAD16-1 peptide solution) and a functionalized peptide (SEQ ID NO. 7) with self-assembling sequence (RADA) (SEQ ID NO. 67) and functional motif (RGD), was evaluated (Tables 8-9) SEQ ID NO. 7 has an additional Glycine at the N-terminus (compared to SEQ ID NO. 4), which causes an increase in hydrophobicity of the hydrogel. Biologically SEQ ID NO. 4 and SEQ ID NO. 7 are considered to have similar effects.
Hydrogels were prepared so that the mixture ratio of RAD and DSG was varied from 100:0 to 0:100 (FIG. 8). Cells were prepared and seeded as described in Example 1. Cells were cultured on hydrogels for 7 days. Cell proliferation was evaluated using DNA contents in the hydrogel as same as Example 1.

[12] = Gel stiffness of hydrogel; format: physicochemical; settings: compared to RAD
[13] = test system: chondrocytes; settings: encapsulated chondrocytes (Kisiday 2002); cited from earlier work

For “Ac(FKFQ)3-CONH2 (Ac-FKFQFKFQFKFQ-NH2) [FKF = 1% solution; FKF-2P = 2% solution, reference compound]”, the “phase of peptide solution in neutral pH range” value [1] is listed as “stays solution phase; also recorded: stays in solution”, the “charge in neutral pH range” value [2] is listed as “positively charged” and the “cell proliferation on hydrogel” value [3] is listed as “supports cell proliferation”. The charge [4] was “positively charged”, the pI [4] was 10.30, and the Cell attachment [5] was “++ (++: 20-50%)”. For the same substance, the “bFGF (growth factor) retention rate” value [6] was “high in the order of KFQ-2P, FHR-2P, RAD-2P then DGR-2P”.
In the case of “Ac(RADA)4GGDGRGDSVAYG-CONH2 (Ac-RADARADARADARADAGGDGRGDSVAYG-NH2) [SEQ ID NO. 5, Cell adhesion domain (Osteopontin); DGR-2P = 2% solution]”, the “cell attachment and cell spread” value [7] is reported as “superior”, the charge [4] is reported as “negatively charged” and the pI [4] is reported as 4.78,. The “bFGF (growth factor) retention rate” value [6] was “high in the order of KFQ-2P, FHR-2P, RAD-2P then DGR-2P”.
With “Ac(RADA)4GGPFSSTKT-CONH2 (Ac-RADARADARADARADAGGPFSSTKT-NH2) [Bone marrow homing; PFS = 1% peptide solution]” the Capillary like morphology [8] was “+” and the Cell attachment [8] was “++ (++: 20-50%)”.
For “Ac(RADA)4GGSKPPGTSS-CONH2 (Ac-RADARADARADARADAGGSKPPGTSS-NH2) [Bone marrow homing; SKP = 1% solution]”, the “pH at which the viscous peptide solution becomes gel” value [9] was 4.5, the pI [4] was 9.74 and the “charge of the molecule around pH 7 range” value ([4]; around pH 7) was “+1”.
In the case of “Ac(RADA)4GPRGDSGYRGDSG-CONH2 (Ac-RADARADARADARADAGPRGDSGYRGDSG-NH2) [DSG = 1% solution]”, the “cell location on the peptide matrix” value ([10]; DSG ratio 10%, FIG. 9A) is reported as “stayed on the surface of the peptide matrix”, the “cell migration into the matrix” value ([10]; DSG ratio 70%, FIG. 9B) is reported as “up to 300 um” and the “Cell proliferation (fluorescence intensity linear to the DNA contents)” value [11] is reported as “drop in fluorescence and drop”. The gel stiffness [12] was “less stiff gel; also recorded: lower stiffness gel”.
For Ac-IEIKIEIKI-NH2 [reference compound], the Cell attachment [5] was “++ (++: 20-50%)”.
For AcFKFQFKFQFKFQGPRGDSGYRGDS-CONH2 [KPRG], the Cell attachment [5] was “++++ (++++: near confluence(>70%))”.
With AcIEIKIEIKIGGPFSSTKT-CONH2 [EPFS] the Cell attachment [5] was “+ (+: Weak(<20%))”.
In the case of AcIEIKIEIKIGGPRGSYRGDS-CONH2 [EPRG], the Cell attachment [5] is reported as “++++ (++++: near confluence(>70%))”.
With AcIEIKIEIKIGGSKPPGTS-CONH2 [ESKP] the Cell attachment [5] was “+ (+: Weak(<20%))”.
For “AcNKLDLKLDLKLDL-CONH2 (Ac-KLDLKLDLKLDL-NH2; not fully specified) [KLD12]”, the “chondrocyte phenotype and ECM” value [13] is listed as “retained their morphology and developed a cartilage-like, mechanically functional ECM rich in proteoglycans and type-II collagen”.
